Where two headings read alike, the source gives them in different places.
What was measured:
U266B1 = assay: Cell strain inhibition activity (Promega single solution cell proliferation test kit), U266; format: cell-based; settings: Homo sapiens, U-266; U266B1 cells, 24 h incubation with drug; read-out: IC50 concentration (nM) of the drugs to cytotoxicity, U266B1
Description: (§1) The test solution used in the present invention is a single solution cell proliferation test kit from Promega company; and the cells used are U266 and RPMI8226. The experimental system is 110 μL, containing 90 μL of cell suspension, 10 μL of test solution, and 10 μL of drug (inhibitor). The final concentration is 4.54×10^−8 M-1.77×10^−9 M, the last concentration is 0 M, the actual preparation concentration is 5×10^−7 M-1.95×10^−8 M, and the last concentration is 0 M. The specific experiment process is as follows:
(§2) After the cells are counted separately, dilution and preparation are performed so that the number of U266 is 1×10^4 cells/well, and the number of RPMI8226 is 1×10^4 cells/well.
(§3) 90 μL of cell suspension is added to each well of a 96-well fluorescence microplate, and incubated for 24 h. […] After the reaction is complete, 10 μL of test solution is added to each well and incubation is performed for 2-3 h. The absorbance is tested with a 490 nm fluorescence microplate reader (BMG LABTECH POLARstar OPTIMA Microplate Reader).
(§4) The absorbances of the products obtained under the action of the drugs of different concentrations after subtracting the substrate are calculated. The IC50 concentration (nM) of the drugs to cytotoxicity is calculated by the GraphPad Prism software.

[1] = biological target: T1, human red blood cell 20S proteasome (Homo sapiens, UniProt P28074); assay: Proteasome inhibition activity (chymotrypsin-like activity, Suc-LLVY-AMC fluorescent substrate); format: biochemical; settings: Suc-LLVY-AMC 50 μM, 37° C.
T1 construct: human red blood cell 20S proteasome; purchased Enzo; host or cells: purified from human red blood cells
Description: The present invention uses a fluorescent polypeptide substrate Suc-Leu-Leu-Val-Tyr-AMC (abbreviated as Suc-LLVY-AMC, Suc stands for succinyl group, AMC stands for 7-amide-4-methylcoumarin) to determine the chymotrypsin-like enzyme activity of the proteasome.
The proteasome used in the present invention is human red blood cell 20S proteasome, and the enzymes, fluorescent substrates and test buffers are all purchased from Enzo company. […]
The 20S proteasome is diluted with a buffer solution to a concentration of 2 ng/μL from 8 ng/μL, and the diluted proteasome solution is added to a 384-well fluorescence microplate, 4 μL each. […] A 360 nm/460 nm fluorescence microplate reader (BMG LABTECH POLARstar OPTIMA Microplate Reader) is used to test the fluorescence value.
The fluorescence values of the products obtained under the action of the drugs of different concentrations after subtracting the substrate are calculated. The IC50 concentration of the drug to inhibit the proteasome is calculated by the GraphPad Prism software.

RPMI8226 = assay: Cell strain inhibition activity (Promega single solution cell proliferation test kit), RPMI8226; format: cell-based; settings: Homo sapiens, RPMI-8226; RPMI8226 cells, 24 h incubation with drug; read-out: IC50 concentration (nM) of the drugs to cytotoxicity, RPMI8226
Description: as §1, §2, §3, §4

[2] = system: CD138+ cells selected from the patients with multiple myeloma; assay: Primary cytotoxicity, CD138+ cells from patients with multiple myeloma; format: cell-based; settings: Homo sapiens
Description: (§5) In the present invention, blood cells from patients with multiple myeloma and blood cells from healthy volunteers are used to test the toxicity of candidate compounds. The test solution is a single solution cell proliferation test kit from Promega company. The cells used are CD138+ cells selected from the patients with multiple myeloma and monocytes from the blood of the healthy volunteers. The experimental system is 110 μL, containing 90 μL of cell suspension, 10 μL of test solution, and 10 μL of drug (inhibitor). The final concentration is 4.54×10^−8 M 1.77×10^−9 M, the last concentration is 0 M, the actual preparation concentration is 5×10^−7 M-1.95×10^−8 M, and the last concentration is 0 M. The specific experiment process is as follows:
(§6) After the cells are counted separately, dilution and preparation are performed so that the number of CD138+ cells is 1×10^4 cells/well, and the number of monocytes is 1×10^4 cells/well.
as §3, §4

[3] = Primary cytotoxicity, monocytes from healthy volunteers; format: cell-based; settings: human, primary blood monocytes from a healthy volunteer, 24 h incubation with drug
Description: as §5, §6, §3, §4

[4] = Patient 1, 24 h incubation with drug, read-out: IC50 concentration (nM) of the drugs to cytotoxicity, Patient 1
[5] = Patient 2, 24 h incubation with drug, read-out: IC50 concentration (nM) of the drugs to cytotoxicity, Patient 2
[6] = Healthy volunteer 3 (first line, r4), read-out: IC50 concentration (nM) of the drugs to cytotoxicity, Healthy volunteer 3
[7] = Healthy volunteer 3 (second line, r5), read-out: IC50 concentration (nM) of the drugs to cytotoxicity, Healthy volunteer 3 (second line)

| SMILES | melting point | further results |
| --- | --- | --- |
| COC[C@H](NC(=O)c1cc(C)on1)C(=O)N[C@H](CSC)C(=O)N[C@@H](CC(C)C)C(=O)[C@@]1(C)CO1 [Compound 31, N-5-methylisoxazolyl-3-formyl-O-methyl-L-seryl-S-methyl-L-cysteinyl-L-leucyl-methyloxirane] | 70.2 to 72.7 °C | – |
| COC[C@H](NC(=O)c1cnccn1)C(=O)N[C@H](CSC)C(=O)N[C@@H](CC(C)C)C(=O)[C@@]1(C)CO1 [Compound 32, N-pyrazinyl-2-formyl-O-methyl-L-seryl-S-methyl-L-cysteinyl-L-leucyl-methyloxirane] | 50 to 51 °C | IC50 (U266B1): 13700 nM |
| COC[C@H](NC(=O)c1cc(Cl)ccc1Cl)C(=O)N[C@H](CSC)C(=O)N[C@@H](Cc1ccccc1)C(=O)[C@@]1(C)CO1 [Compound 33, N-2,5-dichlorophenyl-2-formyl-O-methyl-L-seryl-S-methyl-L-cysteinyl-L-phenylalanyl-methyloxirane] | 50.7 to 52.3 °C | – |
| COC[C@H](NC(=O)c1cnccn1)C(=O)N[C@H](CSC)C(=O)N[C@@H](Cc1ccccc1)C(=O)[C@@]1(C)CO1 [Compound 35, N-pyrazinyl-2-formyl-O-methyl-L-seryl-S-methyl-L-cysteinyl-L-phenylalanyl-methyloxirane] | 46.1 to 47.6 °C | – |
| COC[C@H](NC(=O)[C@@H](CSC)NC(=O)c1cc(Cl)ccc1Cl)C(=O)N[C@@H](CC(C)C)C(=O)[C@@]1(C)CO1 [Compound 36, N-2,5-dichlorophenyl-2-formyl-S-methyl-L-cysteinyl-O-methyl-L-seryl-L-leucyl-methyloxirane] | 59.8 to 60.3 °C | – |
| COC[C@H](NC(=O)[C@@H](CSC)NC(=O)c1cc(C)on1)C(=O)N[C@@H](CC(C)C)C(=O)[C@@]1(C)CO1 [Compound 37, N-5-methylisoxazolyl-3-formyl-S-methyl-L-cysteinyl-O-methyl-L-seryl-L-leucyl-methyloxirane] | 49.5 to 51.8 °C | – |
| COC[C@H](NC(=O)[C@@H](CSC)NC(=O)c1cnccn1)C(=O)N[C@@H](CC(C)C)C(=O)[C@@]1(C)CO1 [Compound 38, N-pyrazinyl-2-formyl-S-methyl-L-cysteinyl-O-methyl-L-seryl-L-leucyl-methyloxirane] | 59.6 to 61.2 °C | IC50 [1]: > 2 µM |
| COC[C@H](NC(=O)[C@@H](CSC)NC(=O)c1cc(Cl)ccc1Cl)C(=O)N[C@@H](Cc1ccccc1)C(=O)[C@@]1(C)CO1 [Compound 39, N-2,5-dichlorophenyl-2-formyl-S-methyl-L-cysteinyl-O-methyl-L-seryl-L-phenylalanyl-methyloxirane] | 51.2 to 52.7 °C | – |
| COC[C@H](NC(=O)[C@@H](CSC)NC(=O)c1cnccn1)C(=O)N[C@@H](Cc1ccccc1)C(=O)[C@@]1(C)CO1 [Compound 41, N-pyrazinyl-2-formyl-S-methyl-L-cysteinyl-O-methyl-L-seryl-L-phenylalanyl-methyloxirane] | 49.7 to 51.2 °C | IC50 (U266B1): 160 nM; IC50 (RPMI8226): 55.3 nM |
| CSC[C@@H](NC(=O)c1cc(Cl)ccc1Cl)C(=O)N[C@H](CSC)C(=O)N[C@@H](CC(C)C)C(=O)[C@@]1(C)CO1 [Compound 42, N-2,5-dichlorophenyl-2-formyl-S-methyl-L-cysteinyl-S-methyl-L-cysteinyl-L-leucyl-methyloxirane] | 163.1 to 164.5 °C | – |
| CSC[C@@H](NC(=O)c1cnc(C)s1)C(=O)N[C@H](CSC)C(=O)N[C@@H](CC(C)C)C(=O)[C@@]1(C)CO1 [Compound 45, N-2-methylthiazolyl-5-formyl-S-methyl-L-cysteinyl-S-methyl-L-cysteinyl-L-leucyl-methyloxirane] | 150 to 151 °C | – |
| CSC[C@@H](NC(=O)c1cc(Cl)ccc1Cl)C(=O)N[C@H](CSC)C(=O)N[C@@H](Cc1ccccc1)C(=O)[C@@]1(C)CO1 [Compound 46, N-2,5-dichlorophenyl-2-formyl-S-methyl-L-cysteinyl-S-methyl-L-cysteinyl-L-phenylalanyl-methyloxirane] | 150 to 151 °C | – |
| CSC[C@@H](NC(=O)c1cc(C)on1)C(=O)N[C@H](CSC)C(=O)N[C@@H](Cc1ccccc1)C(=O)[C@@]1(C)CO1 [Compound 47, N-5-methylisoxazolyl-3-formyl-S-methyl-L-cysteinyl-S-methyl-L-cysteinyl-L-phenylalanyl-methyloxirane] | 149 to 150 °C | – |
| CSC[C@@H](NC(=O)c1cnccn1)C(=O)N[C@H](CSC)C(=O)N[C@@H](Cc1ccccc1)C(=O)[C@@]1(C)CO1 [Compound 48, N-pyrazinyl-2-formyl-S-methyl-L-cysteinyl-S-methyl-L-cysteinyl-L-phenylalanyl-methyloxirane] | – | IC50 [1]: > 2 µM |
| CSC[C@@H](NC(=O)c1cnc(C)s1)C(=O)N[C@H](CSC)C(=O)N[C@@H](Cc1ccccc1)C(=O)[C@@]1(C)CO1 [Compound 49, N-2-methylthiazolyl-5-formyl-S-methyl-L-cysteinyl-S-methyl-L-cysteinyl-L-phenylalanyl-methyloxirane] | 73 to 74 °C | – |
| COC[C@H](NC(=O)c1cc(C)on1)C(=O)NCC(=O)N[C@@H](CC(C)C)C(=O)[C@@]1(C)CO1 [Compound 50, N-5-methylisoxazolyl-3-formyl-O-methyl-L-seryl-glycyl-L-leucyl-methyloxirane] | 47.7 to 49.1 °C | IC50 [2, 4]: 10 nM; IC50 [2, 5]: 11 nM; IC50 at 24 h [3, 6]: > 2000 nM; IC50 at 24 h [3, 7]: > 2000 nM |
| COC[C@H](NC(=O)c1cc(C)on1)C(=O)NCC(=O)N[C@@H](Cc1ccccc1)C(=O)[C@@]1(C)CO1 [Compound 51, N-5-methylisoxazolyl-3-formyl-O-methyl-L-seryl-glycyl-L-phenylalanyl-methyloxirane] | 54 to 55 °C | IC50 [2, 4]: 36 nM; IC50 [2, 5]: 52.6 nM |
| COC[C@H](NC(=O)CNC(=O)c1cc(C)on1)C(=O)N[C@@H](CC(C)C)C(=O)[C@@]1(C)CO1 [Compound 52, N-5-methylisoxazolyl-3-formyl-glycyl-O-methyl-L-seryl-L-leucyl-methyloxirane] | – | IC50 (RPMI8226): > 100 nM |
| CSC[C@@H](NC(=O)c1cc(C)on1)C(=O)NCC(=O)N[C@@H](CC(C)C)C(=O)[C@@]1(C)CO1 [Compound 54, N-5-methylisoxazolyl-3-formyl-S-methyl-L-cysteinyl-glycyl-L-leucyl-methyloxirane] | 58.4 to 59.8 °C | – |
| CSC[C@@H](NC(=O)c1cnc(C)s1)C(=O)NCC(=O)N[C@@H](CC(C)C)C(=O)[C@@]1(C)CO1 [Compound 56, N-2-methylthiazolyl-5-formyl-S-methyl-L-cysteinyl-glycyl-L-leucyl-methyloxirane] | – | IC50 (RPMI8226): > 100 nM |
| COC[C@H](NC(=O)c1cnc(C)s1)C(=O)N[C@@H](COC)C(=O)N[C@@H](Cc1ccccc1)C(=O)[C@@]1(C)CO1 [Oprozomib, reference compound] | – | IC50 [2, 4]: 53 nM; IC50 [2, 5]: 70.9 nM; IC50 at 24 h [3, 6]: 598 nM; IC50 at 24 h [3, 7]: 807 nM |

— patent US12102658B2, “Tripeptide propylene oxide derivative and preparation method and application thereof” (SHENZHEN JIKANG PHARMACEUTICAL TECHNOLOGY CO., LTD, priority 2019, dated 2024)
